Our source for the Kd values is US20250326790A1, “PEPTIDES BINDING TO HYPOXIA INDUCIBLE FACTORS AND THEIR USE” (UNIVERSITY OF SOUTHAMPTON, priority 2021, published 2025).

*1 amine or outer side, *2 acyl side, *3 side chain or, on linkers, in order; H or OH if unused. Where a SMILES comes first, the peptide text is derived from it. [ ]: non-standard residue; d: D form. Phe(4-I) = N[C@@H](Cc1ccc(I)cc1)C(=O)O; hLeu = CC(C)CC[C@H](N)C(=O)O; CO = O=C([*:1])[*:2]

The target in the assay is recombinantly expressed PAS-B domain of HIF-1α (Homo sapiens (Human), UniProt Q16665). Kind of assay: MST binding affinity to PAS-B domain of HIF-1α. The following applies: microscale thermophoresis, 50 nM labelled protein, 10% DMSO. Here is the method: MST experiments were performed on a Monolith NT.115 system (Nanotemper Technologies GmbH), in assay buffer containing 50 nM labelled protein, 10% DMSO and 0.05% TWEEN-20. MST measurements were performed using 50% LED and 50% MST power.
Sequence of recombinantly expressed PAS-B domain of HIF-1α (Q16665 228-298): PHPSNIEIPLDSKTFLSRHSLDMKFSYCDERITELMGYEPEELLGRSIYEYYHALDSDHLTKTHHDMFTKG
Background: Microscale thermophoresis detects binding through changes in fluorescence in a small temperature gradient.
On to `CNC[C@H](NC(=O)[C@H](Cc1ccc(I)cc1)NC(=O)[C@H](CCC(C)C)NS(=O)(=O)c1cc(Cl)c(Cl)s1)C(=O)NCCCCl` [Example 72], for which the equilibrium dissociation constant (Kd) was above 500 µM.
Turning to `CNC(=O)N[C@@H](CCC(C)C)C(=O)N[C@@H](Cc1ccc(I)cc1)C(=O)N[C@@H](CS)C(N)=O` [Example 5] ({NHMe-CO}-[hLeu]-[Phe(4-I)]-Cys-NH2), the Kd is above 50 µM.
As to `CC(C)CC[C@H](NS(=O)(=O)c1cc(Cl)c(Cl)s1)C(=O)N[C@@H](Cc1ccc(I)cc1)C(=O)N[C@@H](CC(N)=O)C(=O)NCCCCl` [Example 58], the Kd was above 500 µM.
For `CC(C)CC[C@H](NS(=O)(=O)c1cc(Cl)c(Cl)s1)C(=O)N(C)[C@@H](Cc1ccc(I)cc1)C(=O)N[C@@H](CN1CCOCC1)C(=O)NCCCCl` [Example 67] the value was above 500 µM; for `CC(C)CC[C@H](NS(=O)(=O)c1cc(Cl)c(Cl)s1)C(=O)N[C@@H](Cc1ccc(I)cc1)C(=O)N[C@@H](CC(F)(F)F)C(=O)NCCCCl` [Example 66], above 125 µM; for `CC(C)CC[C@H](NS(=O)(=O)c1cc(Cl)c(Cl)s1)C(=O)N[C@@H](Cc1ccc(I)cc1)C(=O)N[C@@H](CS(N)(=O)=O)C(=O)NCCCCl` [Example 68], above 500 µM.
The result for `CC(C)CC[C@H](NS(=O)(=O)c1cc(Cl)c(Cl)s1)C(=O)N(C)[C@@H](Cc1ccc(I)cc1)C(=O)N[C@@H](CN)C(=O)NCCCCl` [Example 59] reads above 500 µM; that for `Cc1c(S(=O)(=O)N[C@@H](CCC(C)C)C(=O)N[C@@H](Cc2ccc(I)cc2)C(=O)N[C@@H](CS)C(N)=O)sc2ccc(Cl)cc12` [Example 28], 8 µM; that for `CC(C)CC[C@H](NS(=O)(=O)c1ccc(Cl)s1)C(=O)N[C@@H](Cc1ccc(I)cc1)C(=O)N[C@@H](CS)C(=O)NCCCCCN` [Example 40], 100 µM.

Usually Kd stands for the constant that tells how readily two partners part at equilibrium.
